What all share (assay type): biochemical
Assay [1] has as its target full length recombinant Pim-1 (Homo sapiens (Human), UniProt P11309). Put plainly: Pim enzyme assay (HTRF, phosphorylation of biotinylated-BAD (S112) peptide), Pim-1. The note with it: Pim-1 enzyme assay; read-out: Pim_1_IC50.
For assay [2], the target named is full length recombinant Pim-2 (Homo sapiens (Human), UniProt Q9P1W9). Put plainly: Pim enzyme assay (HTRF, phosphorylation of biotinylated-BAD (S112) peptide), Pim-2. The note with it: read-out: Pim2_IC50.
Chain of full length recombinant Pim-2 (Q9P1W9 whole entry): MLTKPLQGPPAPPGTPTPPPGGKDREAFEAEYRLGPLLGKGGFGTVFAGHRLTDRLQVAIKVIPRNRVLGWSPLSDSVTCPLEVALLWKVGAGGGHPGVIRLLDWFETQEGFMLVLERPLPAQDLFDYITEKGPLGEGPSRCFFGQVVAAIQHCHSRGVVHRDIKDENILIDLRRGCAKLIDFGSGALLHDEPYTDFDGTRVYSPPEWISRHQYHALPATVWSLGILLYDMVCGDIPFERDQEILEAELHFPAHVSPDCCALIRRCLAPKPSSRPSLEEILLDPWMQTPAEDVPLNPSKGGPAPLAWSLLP
The target in assay [3] is full length recombinant Pim-3 (Homo sapiens (Human), UniProt Q86V86). Description: Pim enzyme assay (HTRF, phosphorylation of biotinylated-BAD (S112) peptide), Pim-3. The note with it: read-out: Pim3 IC50. An excerpt:
Pim-3 was purchased from Millipore (UK).
The phosphorylation of biotinylated-BAD (S112) peptide by full length recombinant Pim-1, Pim-2, or Pim-3 protein was detected with streptavidin:Allophycocyanin (APC) conjugate and a europium (Eu) labeled antibody directed against phosphorylated-BAD (S112). […] The fluorescence is directly proportional to the amount of phosphorylated BAD peptide present in the reaction.
A reference compound was included on each assay plate in order to validate that plate; on one plate of every assay run, two additional reference compounds were included.
The final buffer conditions were as follows: 60 mM Hepes, pH 7.0, 0.05% BSA, 2 mM DTT. Incubations were carried out at RT (22° C.) for 2 h for Pim-1, 1 h and 30 min for Pim-3, and 45 min for Pim-2. The reaction was then stopped by the addition of 3 mM EDTA, and fluorescence was measured by an HTRF® Rubystar microplate reader. For each plate, percent of control (POC) values were calculated for each well. Values for the IC50 IP were estimated using a standard 4-parameter logistic model.

Like-named read-outs stand apart in the source and are kept apart here.

Chain of full length recombinant Pim-1 (P11309 whole entry): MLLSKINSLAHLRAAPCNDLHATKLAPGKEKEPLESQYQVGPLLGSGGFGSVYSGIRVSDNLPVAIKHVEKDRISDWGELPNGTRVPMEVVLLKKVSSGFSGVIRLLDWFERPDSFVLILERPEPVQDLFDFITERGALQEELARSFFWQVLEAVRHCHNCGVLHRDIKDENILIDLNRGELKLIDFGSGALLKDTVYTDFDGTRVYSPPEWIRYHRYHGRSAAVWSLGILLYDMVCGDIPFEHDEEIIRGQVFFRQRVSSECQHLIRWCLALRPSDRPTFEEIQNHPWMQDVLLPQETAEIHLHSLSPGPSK

`COC[C@@H]1CCCN1c1ccnc(-c2c[nH]c3ccc(-c4nnc(N)o4)cc23)n1` [Example 109, 5-(3-(4-((2S)-2-(methoxymethyl)-1-pyrrolidinyl)-2-pyrimidinyl)-1H-indol-5-yl)-1,3,4-oxadiazol-2-amine]: the IC50 is 32.2 nM in assay [1], 26.8 nM in assay [2] (Pim-2 enzyme assay) and 13 nM in assay [3] (Pim-3 enzyme assay).

Consider `COc1cncc(-c2c[nH]c3ccc(-c4nnc(N)o4)nc23)c1` [Example 10, 5-(3-(5-methoxypyridin-3-yl)-1H-pyrrolo[3,2-b]pyridin-5-yl)-1,3,4-oxadiazol-2-amine], for which the IC50 came out at 1130 nM in assay [1], 570 nM in assay [2] (Pim-2 enzyme assay) and 642 nM in assay [3] (Pim-3 enzyme assay).

For the compound `c1ccc(-c2nnc(-c3ccc4[nH]cc(-c5nccc(C6CC6)n5)c4c3)o2)cc1` [Example 255, 3-(4-cyclopropyl-2-pyrimidinyl)-5-(5-phenyl-1,3,4-oxadiazol-2-yl)-1H-indole], the figures for the IC50 in assay [1], in assay [2] (Pim-2 enzyme assay) and in assay [3] (Pim-3 enzyme assay) were 323 nM, 677 nM and 123 nM, respectively.

Take `Nc1nnc(-c2ccc3[nH]cc(-c4cncc(Oc5ccccc5)n4)c3c2)o1` [Example 92, 5-(3-(6-phenoxy-2-pyrazinyl)-1H-indol-5-yl)-1,3,4-oxadiazol-2-amine]: the IC50 in assay [1] stood at 25.9 nM; in assay [2] (Pim-2 enzyme assay) it was 46.6 nM; in assay [3] (Pim-3 enzyme assay), 12.3 nM.

Regarding `CCCCOc1cnc(-c2c[nH]c3ccc(-c4nnc(N)s4)cc23)cn1` [Example 193, 5-(3-(5-butoxy-2-pyrazinyl)-1H-indol-5-yl)-1,3,4-thiadiazol-2-amine], the IC50 in assay [1] turned out to be 931 nM; in assay [2] (Pim-2 enzyme assay) it was 1550 nM; in assay [3] (Pim-3 enzyme assay), 392 nM.

As to `COc1ccc(CNc2nnc(-c3ccc4[nH]cc(-c5cncc(C6CC6)n5)c4c3)o2)cc1` [Example 36, 5-(3-(6-Cyclopropylpyrazin-2-yl)-1H-indol-5-yl)-N-(4-methoxybenzyl)-1,3,4-oxadiazol-2-amine 2,2,2-trifluoroacetate], the IC50 in assay [1] was 43 nM; in assay [2] (Pim-2 enzyme assay), 212 nM; in assay [3] (Pim-3 enzyme assay) it was 11.4 nM.

For `Nc1nnc(-c2ccc3[nH]cc(-c4cncc(Cl)n4)c3c2)o1` [Example 102, 5-(3-(6-chloro-2-pyrazinyl)-1H-indol-5-yl)-1,3,4-oxadiazol-2-amine], the IC50 in assay [1] amounted to 157 nM; in assay [2] (Pim-2 enzyme assay), 146 nM; in assay [3] (Pim-3 enzyme assay) it was 29.2 nM.

As for `Nc1cccc(-c2c[nH]c3ccc(-c4nnc(N)s4)cc23)n1` [Example 190, 6-(5-(5-amino-1,3,4-thiadiazol-2-yl)-1H-indol-3-yl)-2-pyridinamine], the IC50 amounted to 705 nM in assay [1], 977 nM in assay [2] (Pim-2 enzyme assay) and 186 nM in assay [3] (Pim-3 enzyme assay).

Take `c1cc(-c2nnc(-c3ccc4[nH]cc(-c5cncc(C6CC6)n5)c4c3)o2)[nH]n1` [Example 39, 2-(3-(6-Cyclopropylpyrazin-2-yl)-1H-indol-5-yl)-5-(1H-pyrazol-5-yl)-1,3,4-oxadiazole 2,2,2-trifluoroacetate]: the IC50 in assay [1] is 51.4 nM; in assay [2] it was 158 nM; in assay [3] it was 19.8 nM.

As for `CC(C)Oc1cccc(-c2c[nH]c3ccc(-c4nnc(N)o4)nc23)c1` [Example 126, 5-(3-(3-(1-methylethoxy)phenyl)-1H-pyrrolo[3,2-b]pyridin-5-yl)-1,3,4-oxadiazol-2-amine], the IC50 came out at 272 nM in assay [1], 244 nM in assay [2] (Pim-2 enzyme assay) and 84.8 nM in assay [3] (Pim-3 enzyme assay).

As for `Fc1ccccc1-c1c[nH]c2ccc(-c3nnc(NCc4ccccc4)s3)cc12` [Example 149, N-benzyl-5-(3-(2-fluorophenyl)-1H-indol-5-yl)-1,3,4-thiadiazol-2-amine], the IC50 is 1050 nM in assay [1], above 3000 nM in assay [2] (Pim-2 enzyme assay) and 522 nM in assay [3] (Pim-3 enzyme assay).

`Cc1nnc2n1CCN(c1cccc(-c3c[nH]c4ccc(-c5nnc(N)s5)cc34)n1)C2` [Example 25, 5-(3-(6-(3-methyl-5,6-dihydro-[1,2,4]triazolo[4,3-a]pyrazin-7(8H)-yl)pyridin-2-yl)-1H-indol-5-yl)-1,3,4-thiadiazol-2-amine 2,2,2-trifluoroacetate]: the IC50 in assay [1] was determined as 17.5 nM; in assay [2] (Pim-2 enzyme assay), 88.7 nM; in assay [3] (Pim-3 enzyme assay) it was 3.02 nM.

For the compound `NC1CCN(c2nnc(-c3ccc4[nH]cc(-c5ccccc5F)c4c3)s2)CC1` [Example 144, 1-(5-(3-(2-fluorophenyl)-1H-indol-5-yl)-1,3,4-thiadiazol-2-yl)-4-piperidinamine], the IC50 in assay [1] came out at 267 nM; in assay [2] (Pim-2 enzyme assay), 1700 nM; in assay [3] (Pim-3 enzyme assay) it was 163 nM.

In the case of `CNc1nnc(-c2ccc3[nH]cc(-c4cccc(OC)c4)c3c2)s1` [Example 226, 5-(3-(3-methoxyphenyl)-1H-indol-5-yl)-N-methyl-1,3,4-thiadiazol-2-amine], the IC50 in assay [1] was 2450 nM; in assay [2] (Pim-2 enzyme assay), above 3000 nM; in assay [3] (Pim-3 enzyme assay), 354 nM.

On to `CNc1nnc(-c2ccc3[nH]cc(-c4ccn[nH]4)c3c2)s1` [Example 222, N-methyl-5-(3-(1H-pyrazol-5-yl)-1H-indol-5-yl)-1,3,4-thiadiazol-2-amine], for which the figures for the IC50 in assay [1], in assay [2] (Pim-2 enzyme assay) and in assay [3] (Pim-3 enzyme assay) were 1010 nM, 1440 nM and 268 nM, respectively.

Regarding `Nc1nnc(-c2ccc3[nH]cc(-c4cccc(O)n4)c3c2)s1` [Example 196, 6-(5-(5-amino-1,3,4-thiadiazol-2-yl)-1H-indol-3-yl)-2-pyridinol], the IC50 in assay [1] was 2070 nM; in assay [2] (Pim-2 enzyme assay), above 3000 nM; in assay [3] (Pim-3 enzyme assay), 918 nM.

With `CC(Nc1nnc(-c2ccc3[nH]cc(-c4ccccn4)c3c2)o1)c1ccccc1` (stereo not drawn) [Example 267, N-(1-phenylethyl)-5-(3-(2-pyridinyl)-1H-indol-5-yl)-1,3,4-oxadiazol-2-amine], the IC50 in assay [1] is 97.2 nM; in assay [2] (Pim-2 enzyme assay) it was 231 nM; in assay [3] (Pim-3 enzyme assay), 56.1 nM.

`Nc1nnc(-c2ccc3[nH]cc(-c4nccc(C(F)(F)F)n4)c3c2)o1` [Example 96, 5-(3-(4-(trifluoromethyl)-2-pyrimidinyl)-1H-indol-5-yl)-1,3,4-oxadiazol-2-amine]: the IC50 in assay [1] turned out to be 67 nM; in assay [2] (Pim-2 enzyme assay), 31.9 nM; in assay [3] (Pim-3 enzyme assay), 12 nM.

With `Cc1ccn(-c2cnc(-c3c[nH]c4ccc(-c5nnc(N)s5)cc34)cn2)n1` [Example 197, 5-(3-(5-(3-methyl-1H-pyrazol-1-yl)-2-pyrazinyl)-1H-indol-5-yl)-1,3,4-thiadiazol-2-amine], the IC50 is 2270 nM in assay [1], 2900 nM in assay [2] (Pim-2 enzyme assay) and 836 nM in assay [3] (Pim-3 enzyme assay).

As to `CNc1nnc(-c2ccc3[nH]cc(-c4ccncc4)c3c2)s1` [Example 219, N-methyl-5-(3-(4-pyridinyl)-1H-indol-5-yl)-1,3,4-thiadiazol-2-amine], the values for the IC50 in assay [1], in assay [2] (Pim-2 enzyme assay) and in assay [3] (Pim-3 enzyme assay) were 551 nM, 686 nM and 204 nM, respectively.

As for `CC(=O)Nc1cccc(CNc2nnc(-c3ccc4[nH]cc(-c5ccccc5F)c4c3)s2)c1` [Example 145, N-(3-(((5-(3-(2-fluorophenyl)-1H-indol-5-yl)-1,3,4-thiadiazol-2-yl)amino)methyl)phenyl)acetamide], the IC50 in assay [1] is 308 nM; in assay [2] (Pim-2 enzyme assay), 2170 nM; in assay [3] (Pim-3 enzyme assay), 308 nM.

In the case of `CNc1nnc(-c2ccc3[nH]cc(-c4cccc(-c5ccccc5)c4)c3c2)s1` [Example 22, 5-(3-(biphenyl-3-yl)-1H-indol-5-yl)-N-methyl-1,3,4-thiadiazol-2-amine], the values for the IC50 in assay [1], in assay [2] (Pim-2 enzyme assay) and in assay [3] (Pim-3 enzyme assay) were 2800 nM, above 3000 nM and 1470 nM, respectively.
